Measured values taken from PubChem BioAssay AID1259407 (Chemical Carcinogenesis Research Information System (CCRIS), 2018).
Active and inactive are the calls of the source. No rule for the calls is given here.

Tested on: CCRIS mutagenicity, Ames/micronucleus/aberration tests
Test: CCRIS mutagenicity studies
Conditions: Method: PREINCUBATION
[1] = Test System: AMES SALMONELLA TYPHIMURIUM, Strain/Indicator: TA98, Metabolic Activation: NONE
[2] = Test System: AMES SALMONELLA TYPHIMURIUM, Strain/Indicator: TA100, Metabolic Activation: NONE

## CCCCCCCC(=O)O
Test System: AMES SALMONELLA TYPHIMURIUM, Strain/Indicator: TA97, Metabolic Activation: HAMSTER, LIVER, S-9, AROCLOR 1254 (10%)
  mutagenic call: inactive; negative
Test System: AMES SALMONELLA TYPHIMURIUM, Strain/Indicator: TA97, Metabolic Activation: HAMSTER, LIVER, S-9, AROCLOR 1254 (30%)
  mutagenic call: inactive; negative
Test System: AMES SALMONELLA TYPHIMURIUM, Strain/Indicator: TA97, Metabolic Activation: NONE
  mutagenic call: inactive; negative
Test System: AMES SALMONELLA TYPHIMURIUM, Strain/Indicator: TA97, Metabolic Activation: RAT, LIVER, S-9, AROCLOR 1254 (10%)
  mutagenic call: inactive; negative
Test System: AMES SALMONELLA TYPHIMURIUM, Strain/Indicator: TA97, Metabolic Activation: RAT, LIVER, S-9, AROCLOR 1254 (30%)
  mutagenic call: inactive; negative
Test System: AMES SALMONELLA TYPHIMURIUM, Strain/Indicator: TA98, Metabolic Activation: HAMSTER, LIVER, S-9, AROCLOR 1254 (10%)
  mutagenic call: inactive; negative
Test System: AMES SALMONELLA TYPHIMURIUM, Strain/Indicator: TA98, Metabolic Activation: HAMSTER, LIVER, S-9, AROCLOR 1254 (30%)
  mutagenic call: inactive; negative
[1]
  mutagenic call: inactive; negative
Test System: AMES SALMONELLA TYPHIMURIUM, Strain/Indicator: TA98, Metabolic Activation: RAT, LIVER, S-9, AROCLOR 1254 (10%)
  mutagenic call: inactive; negative
Test System: AMES SALMONELLA TYPHIMURIUM, Strain/Indicator: TA98, Metabolic Activation: RAT, LIVER, S-9, AROCLOR 1254 (30%)
  mutagenic call: inactive; negative
Test System: AMES SALMONELLA TYPHIMURIUM, Strain/Indicator: TA100, Metabolic Activation: HAMSTER, LIVER, S-9, AROCLOR 1254 (10%)
  mutagenic call: inactive; negative
Test System: AMES SALMONELLA TYPHIMURIUM, Strain/Indicator: TA100, Metabolic Activation: HAMSTER, LIVER, S-9, AROCLOR 1254 (30%)
  mutagenic call: inactive; negative
[2]
  mutagenic call: inactive; negative
Test System: AMES SALMONELLA TYPHIMURIUM, Strain/Indicator: TA100, Metabolic Activation: RAT, LIVER, S-9, AROCLOR 1254 (10%)
  mutagenic call: inactive; negative
Test System: AMES SALMONELLA TYPHIMURIUM, Strain/Indicator: TA100, Metabolic Activation: RAT, LIVER, S-9, AROCLOR 1254 (30%)
  mutagenic call: inactive; negative
Test System: AMES SALMONELLA TYPHIMURIUM, Strain/Indicator: TA1535, Metabolic Activation: HAMSTER, LIVER, S-9, AROCLOR 1254 (10%)
  mutagenic call: inactive; negative
Test System: AMES SALMONELLA TYPHIMURIUM, Strain/Indicator: TA1535, Metabolic Activation: HAMSTER, LIVER, S-9, AROCLOR 1254 (30%)
  mutagenic call: inactive; negative
Test System: AMES SALMONELLA TYPHIMURIUM, Strain/Indicator: TA1535, Metabolic Activation: NONE
  mutagenic call: inactive; negative
Test System: AMES SALMONELLA TYPHIMURIUM, Strain/Indicator: TA1535, Metabolic Activation: RAT, LIVER, S-9, AROCLOR 1254 (10%)
  mutagenic call: inactive; negative
Test System: AMES SALMONELLA TYPHIMURIUM, Strain/Indicator: TA1535, Metabolic Activation: RAT, LIVER, S-9, AROCLOR 1254 (30%)
  mutagenic call: inactive; negative
Test System: AMES SALMONELLA TYPHIMURIUM, Strain/Indicator: TA1537, Metabolic Activation: HAMSTER, LIVER, S-9, AROCLOR 1254 (10%)
  mutagenic call: inactive; negative
Test System: AMES SALMONELLA TYPHIMURIUM, Strain/Indicator: TA1537, Metabolic Activation: HAMSTER, LIVER, S-9, AROCLOR 1254 (30%)
  mutagenic call: inactive; negative
Test System: AMES SALMONELLA TYPHIMURIUM, Strain/Indicator: TA1537, Metabolic Activation: NONE
  mutagenic call: inactive; negative
Test System: AMES SALMONELLA TYPHIMURIUM, Strain/Indicator: TA1537, Metabolic Activation: RAT, LIVER, S-9, AROCLOR 1254 (10%)
  mutagenic call: inactive; negative
Test System: AMES SALMONELLA TYPHIMURIUM, Strain/Indicator: TA1537, Metabolic Activation: RAT, LIVER, S-9, AROCLOR 1254 (30%)
  mutagenic call: inactive; negative

## O=C(Cl)c1c(Cl)cccc1Cl
[1]
  mutagenic call: active; positive
Test System: AMES SALMONELLA TYPHIMURIUM, Strain/Indicator: TA98, Metabolic Activation: RAT LIVER S-9, PCB
  mutagenic call: active; positive
[2]
  mutagenic call: active; positive
Test System: AMES SALMONELLA TYPHIMURIUM, Strain/Indicator: TA100, Metabolic Activation: RAT LIVER S-9, PCB
  mutagenic call: active; positive
Test System: AMES SALMONELLA TYPHIMURIUM, Strain/Indicator: TA104, Metabolic Activation: NONE
  mutagenic call: inactive; negative
Test System: AMES SALMONELLA TYPHIMURIUM, Strain/Indicator: TA104, Metabolic Activation: RAT LIVER S-9, PCB
  mutagenic call: active; positive
Test System: E.COLI, Strain/Indicator: WP2 UVRA, Metabolic Activation: NONE
  mutagenic call: active; positive
Test System: E.COLI, Strain/Indicator: WP2 UVRA, Metabolic Activation: RAT LIVER S-9, PCB
  mutagenic call: active; positive
